Measured values as given in publication PMC6731595, “The anti-parasitic agent suramin and several of its analogues are inhibitors of the DNA binding protein Mcm10” (Open Biology, 2019).
“Also recorded” adds a separate entry of the source. Counter-ions that a name gives are not always drawn. Like-named read-outs stand apart in the source and are kept apart here.

Experiments:
hMcm10-ID = target: T1, hMcm10-ID (Homo sapiens, UniProt Q7L590); assay: Surface plasmon resonance binding kinetics on immobilized hMcm10-ID (Biacore S200); conditions: for surface plasmon resonance hMcm10-ID kd / kon: 25°C; for kon: read-out: surface plasmon resonance hMcm10-ID ka; for SPR binding kinetics (description of sensorgrams): immobilized hMcm10-ID
T1 construct: hMcm10-ID (residues 237 to 436) were expressed in E. coli strain BL21(DE3); 6xHis (HRV 3C site) (N, cleaved yes); made in house; host or cells: E. coli BL21(DE3)
T1 sequence (Q7L590 237-436): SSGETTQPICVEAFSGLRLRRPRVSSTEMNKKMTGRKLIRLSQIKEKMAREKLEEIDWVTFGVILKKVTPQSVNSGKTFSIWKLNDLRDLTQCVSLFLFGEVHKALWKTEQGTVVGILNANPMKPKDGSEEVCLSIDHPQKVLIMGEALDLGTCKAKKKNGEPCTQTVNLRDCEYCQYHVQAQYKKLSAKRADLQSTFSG
Method: SPR experiments were performed using a Biacore S200 (GE Healthcare) equipped with a research-grade CM5 sensor chip. hMcm10-ID, at a concentration of 15 µg ml^−1 in 10 mM sodium acetate, pH 4.5, […], using an amine coupling kit (GE Healthcare) to either flow cell 2 or 4 following manufacturer directions. The reference flow cell (either flow cell 1 or 3) was left untreated. All compounds were dissolved in running buffer (10 mM PBS, 150 mM NaCl, 0.005% P20, pH 7.4) prior to injection over the chip surface at a flow rate of 30 µl min^−1 and at a temperature of 25°C. Zero concentration samples were injected for double referencing. Data were collected at a rate of 40 Hz and were fitted to a simple 1 : 1 interaction model (unless otherwise noted) using the global data analysis within the Biacore S200 evaluation software.

[1] = tested on: DNA replication of sperm chromatin in Xenopus egg extracts; assay: In vitro DNA replication assay in Xenopus S-phase egg extracts ([α-32P]dGTP incorporation); assay type: biochemical; conditions: 10, 50, 150 and 300 µM
Method: Xenopus egg extracts were prepared according to the method of Murray. Replication of sperm chromatin in S-phase egg extracts was monitored as previously described. Compounds identified by HTS were added to replication reactions immediately prior to addition of [α-^32P]dGTP (Perkin Elmer BLU514H250UC).
To determine whether the four remaining confirmed HTS hits affected DNA replication, in vitro replication assays were performed using Xenopus S-phase egg extracts incubated with sperm chromatin [25, 34]. DNA replication was measured in the presence of bronopol, fumarprotocetraric acid, iriginol and suramin or DMSO by the incorporation of [α-^32P]dGTP. […] For this reason, further studies focused on suramin alone.
Figure 1. Suramin inhibits DNA replication in an in vitro Xenopus replication assay. HTS hits were evaluated for inhibition of [α-^32P]dGTP incorporation into DNA using a cell-free extract prepared from Xenopus eggs at increasing concentrations (10, 50, 150 and 300 µM indicated by black triangle from right to left). No chemical (–) and DMSO were used as negative controls for replication inhibition (far left and far right lanes).

[2] = calculated from association and dissociation rate constants, 1:1 model, 6000–8000 RU, read-out: surface plasmon resonance hMcm10-ID kinetic KD

| surface plasmon resonance hMcm10-ID kd (hMcm10-ID; 1:1 model, 6000–8000 RU) | kon (hMcm10-ID; 1:1 model, 6000–8000 RU) | Kd (hMcm10-ID; [2]) | SPR binding kinetics (description of sensorgrams) (hMcm10-ID) | Structure (SMILES) | Kd (hMcm10-ID; 3000 RU of hMcm10-ID immobilized, read-out: SPR kinetic KD at lower surface density) | DNA replication, [α-32P]dGTP incorporation (result in words) [1] |
| --- | --- | --- | --- | --- | --- | --- |
| 0.0032 ± 0.0001 s^−1 | 7400 ± 600000 M⁻¹ s⁻¹ | 460 ± 50 nM | predominantly rapid kinetics | O=C(Nc1cccc(C(=O)Nc2cc(C(=O)Nc3ccc(S(=O)(=O)O)c4cc(S(=O)(=O)O)cc(S(=O)(=O)O)c34)ccc2F)c1)Nc1cccc(C(=O)Nc2cc(C(=O)Nc3ccc(S(=O)(=O)O)c4cc(S(=O)(=O)O)cc(S(=O)(=O)O)c34)ccc2F)c1 [NF157] |  |  |
| 1.6 ± 0.2 s^−1 | 360000 ± 2e+09 M⁻¹ s⁻¹ | 4700 ± 800 nM | rapid association and dissociation | O=C(Nc1cccc(C(=O)Nc2ccc(S(=O)(=O)O)c3cc(S(=O)(=O)O)cc(S(=O)(=O)O)c23)c1)Nc1cccc(C(=O)Nc2ccc(S(=O)(=O)O)c3cc(S(=O)(=O)O)cc(S(=O)(=O)O)c23)c1 [NF023] |  |  |

The remaining lines, values behind:

| Structure (SMILES) | surface plasmon resonance hMcm10-ID kd (hMcm10-ID; 1:1 model, 6000–8000 RU) | kon (hMcm10-ID; 1:1 model, 6000–8000 RU) | Kd (hMcm10-ID; [2]) | SPR binding kinetics (description of sensorgrams) (hMcm10-ID) | Kd (hMcm10-ID; 3000 RU of hMcm10-ID immobilized, read-out: SPR kinetic KD at lower surface density) | DNA replication, [α-32P]dGTP incorporation (result in words) [1] |
| --- | --- | --- | --- | --- | --- | --- |
| Cc1nc(/N=N/c2ccc(S(=O)(=O)O)cc2S(=O)(=O)O)c(COP(=O)(O)O)c(C=O)c1O [PPADS, pyridoxalphosphate-6-azophenyl-2’, 4’-disulfonic acid tetrasodium salt] | 0.0013 ± 0.0001 s^−1 | 29 ± 8 M⁻¹ s⁻¹ | 57000 ± 9000 nM | slow association and dissociation kinetics; also recorded: slow on and off rates |  |  |
| Cc1ccc(C(=O)Nc2ccc(S(=O)(=O)O)c3cc(S(=O)(=O)O)cc(S(=O)(=O)O)c23)cc1NC(=O)c1cccc(NC(=O)Nc2cccc(C(=O)Nc3cc(C(=O)Nc4ccc(S(=O)(=O)O)c5cc(S(=O)(=O)O)cc(S(=O)(=O)O)c45)ccc3C)c2)c1 [suramin, suramin sodium salt] | 0.16 ± 0.03 s^−1 | 290000 ± 7e+09 M⁻¹ s⁻¹ | 570 ± 60 nM | predominantly rapid kinetics | 650 nM | dose-dependent decrease in replication products; also recorded: dose-dependent decrease in DNA replication |
| Cc1nc(/N=N/c2cc(S(=O)(=O)O)ccc2S(=O)(=O)O)c(COP(=O)(O)O)c(C=O)c1O [iso-PPADS, pyridoxalphosphate-6-azophenyl-2’, 5’-disulfonic acid tetrasodium salt] | 0.0015 ± 0.0001 s^−1 | 47 ± 8 M⁻¹ s⁻¹ | 40000 ± 9000 nM | slow on- and off-rates |  |  |
